For six compounds, DC50 and IC50 results are on record in patent US20240246977A1, “DEGRADATION OF BRUTON'S TYROSINE KINASE (BTK) BY CONJUGATION OF BTK INHIBITORS WITH E3 LIGASE LIGAND AND METHOD OF USE” (BeiGene Switzerland GmbH, priority 2021, published 2024).

One experiment deals with BTK (Homo sapiens, UniProt Q06187). The experiment is described as follows: BTK cell degradation in TMD-8 cells, HTRF assay. Also noted: endogenous in cells; host or cells: TMD-8 cells. The settings on record: 6 h treatment, IC50 (DC50) of BTK degradation. Type of experiment: cell-based. The gist of the method: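 BTK levels read by HTRF in lysates of TMD-8 cells exposed to compounds for 6 h, eight concentrations at 6-fold steps in 0.2% DMSO. Percent degradation versus DMSO and low controls was fitted with a four-parameter equation to give DC50; Dmax is maximal degradation.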
Chain of BTK (Q06187 whole entry): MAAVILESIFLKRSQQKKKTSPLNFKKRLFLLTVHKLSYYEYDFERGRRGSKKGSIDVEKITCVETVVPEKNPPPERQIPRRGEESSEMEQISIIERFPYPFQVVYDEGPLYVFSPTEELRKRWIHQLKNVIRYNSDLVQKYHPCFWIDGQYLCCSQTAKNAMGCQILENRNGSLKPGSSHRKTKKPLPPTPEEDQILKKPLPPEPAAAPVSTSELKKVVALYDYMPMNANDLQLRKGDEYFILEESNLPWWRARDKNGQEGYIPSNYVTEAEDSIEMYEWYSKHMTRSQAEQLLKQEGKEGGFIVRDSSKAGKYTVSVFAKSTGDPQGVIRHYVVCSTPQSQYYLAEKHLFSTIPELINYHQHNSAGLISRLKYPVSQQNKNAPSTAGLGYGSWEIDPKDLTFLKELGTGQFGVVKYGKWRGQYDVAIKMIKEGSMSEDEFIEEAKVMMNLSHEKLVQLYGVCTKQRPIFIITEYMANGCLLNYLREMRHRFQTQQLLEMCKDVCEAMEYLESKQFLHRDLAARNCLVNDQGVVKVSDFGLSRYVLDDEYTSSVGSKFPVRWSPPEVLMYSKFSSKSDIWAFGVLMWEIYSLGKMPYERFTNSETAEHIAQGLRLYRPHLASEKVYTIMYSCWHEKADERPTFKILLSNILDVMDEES
(In general: Time-resolved FRET reads energy transfer from a long-lived donor to a nearby acceptor.)

A further experiment relates to HEK-293 cells. The experiment is described as follows: HEK-293 cytotoxicity detection (CellTiter-Glo). The following applies: Homo sapiens, 72 h, 72 h incubation, CellTiter-Glo luminescence, read-out: HEK293. Type of experiment: cell-based. The gist of the method:
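HEK-293 cells exposed 72 h to 8 compounds doses (4-fold dilutions, top stock 5 mM at 500×) in 0.2% DMSO. Viability by CellTiter-Glo luminescence; inhibition normalised to DMSO high control and low control, IC50 from four-parameter curve fit.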

The DC50 is the concentration at which degradation of the target reaches its halfway point. Regarding `COc1ccnc(NC(=O)c2ccc(-c3nn4c(c3C(N)=O)Nc3ccc(N5CCN(CC6CCN(c7ccc(N8CCC(=O)NC8=O)cc7)CC6)CC5)cc3CC4)cc2)c1` [Example B9, 7-(4-((1-(4-(2,4-dioxotetrahydropyrimidin-1(2H)-yl)phenyl)piperidin-4-yl)methyl)piperazin-1-yl)-2-(4-((4-methoxypyridin-2-yl)carbamoyl)phenyl)-9,10-dihydro-4H-benzo[d]pyrazolo[1,5-a][1,3]diazepine-3-carboxamide], half-maximal degradation on BTK (DC50) was put at 6.14 nM. Moreover, in the experiment on HEK-293 cells, the IC50 was above 10000 nM.
For `Cc1ccnc(NC(=O)c2ccc(-c3nn4c(c3C(N)=O)Nc3ccc(N5CCN(CC6CCN(c7ccc(N8CCC(=O)NC8=O)cc7)CC6)CC5)cc3CC4)cc2)c1` [Example B10, 7-(4-((1-(4-(2,4-dioxotetrahydropyrimidin-1(2H)-yl)phenyl)piperidin-4-yl)methyl)piperazin-1-yl)-2-(4-((4-methylpyridin-2-yl)carbamoyl)phenyl)-9,10-dihydro-4H-benzo[d]pyrazolo[1,5-a][1,3]diazepine-3-carboxamide] the same measures were 4.69 nM and above 10000 nM.
In turn, `NC(=O)c1c(-c2ccc(C(=O)Nc3cc(C4CC4)ccn3)cc2)nn2c1Nc1ccc(N3CCN(CC4CCN(c5ccc(N6CCC(=O)NC6=O)cc5)CC4)CC3)cc1CC2` [Example B11, 2-(4-((4-cyclopropylpyridin-2-yl)carbamoyl)phenyl)-7-(4-((1-(4-(2,4-dioxotetrahydropyrimidin-1(2H)-yl)phenyl)piperidin-4-yl)methyl)piperazin-1-yl)-9,10-dihydro-4H-benzo[d]pyrazolo[1,5-a][1,3]diazepine-3-carboxamide] returned a DC50 at BTK of 0.387 nM. Moreover, the IC50 with HEK-293 cells is above 10000 nM.
On the same counts, the results for `NC(=O)c1c(-c2ccc(C(=O)Nc3cc(C(F)(F)F)ccn3)cc2)nn2c1Nc1ccc(N3CCN(CC4CCN(c5ccc(N6CCC(=O)NC6=O)cc5)CC4)CC3)cc1CC2` [Example B12, 7-(4-((1-(4-(2,4-dioxotetrahydropyrimidin-1(2H)-yl)phenyl)piperidin-4-yl)methyl)piperazin-1-yl)-2-(4-((4-(trifluoromethyl)pyridin-2-yl)carbamoyl)phenyl)-9,10-dihydro-4H-benzo[d]pyrazolo[1,5-a][1,3]diazepine-3-carboxamide] are 5.82 nM and above 10000 nM.
On BTK, `NC(=O)c1c(-c2ccc(C(=O)Nc3nccc(C(F)(F)F)c3F)cc2)nn2c1Nc1ccc(N3CCN(CC4CCN(c5ccc(N6CCC(=O)NC6=O)cc5)CC4)CC3)cc1CC2` [Example B13, 7-(4-((1-(4-(2,4-dioxotetrahydropyrimidin-1(2H)-yl)phenyl)piperidin-4-yl)methyl)piperazin-1-yl)-2-(4-((3-fluoro-4-(trifluoromethyl)pyridin-2-yl)carbamoyl)phenyl)-9,10-dihydro-4H-benzo[d]pyrazolo[1,5-a][1,3]diazepine-3-carboxamide] registered a DC50 of 0.408 nM. Moreover, in the experiment with HEK-293 cells, the IC50 is 180 nM.
For `NC(=O)c1c(-c2cc(F)c(C(=O)Nc3cc(C(F)(F)F)ccn3)c(F)c2)nn2c1Nc1ccc(N3CCN(CC4CCN(c5ccc(N6CCC(=O)NC6=O)cc5)CC4)CC3)cc1CC2` [Example B14, 2-(3,5-difluoro-4-((4-(trifluoromethyl)pyridin-2-yl)carbamoyl)phenyl)-7-(4-((1-(4-(2,4-dioxotetrahydropyrimidin-1(2H)-yl)phenyl)piperidin-4-yl)methyl)piperazin-1-yl)-9,10-dihydro-4H-benzo[d]pyrazolo[1,5-a][1,3]diazepine-3-carboxamide] the same measures were 1.61 nM and 75.4 nM.
